The supplement of paper PMC11208160

Test: recombinant barcode read abundance after kanamycin selection (control-corrected) (log10(CPM+1)); higher = more efficient recombination; sequences stand for … in AGTGCAGAGAAAATCGGCCAGTTTTCTCTGCCTGCAGTCCGCATGCCGT…ATTTATGCAGCGGACTGCCTTTCTCCCAAAGTGATAAACCGGACAGTATCATGGACCGGTTTTCCCGGTAATCCGTATTTGCAAGGTTGGTTTCACT; site = the 11-nt target
Procedure, shortened: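 Recombination efficiency in this pooled E. coli screen uses counts per million of barcodes at recombinant junctions, averaged and corrected against the control. The reported form is log10(CPM+1). Two replicates were plated on chloramphenicol/ampicillin LB agar as control and two on chloramphenicol/ampicillin/kanamycin with 0.1 mM IPTG.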

Sequence	recombinant barcode read abundance (log10)
TAGAGGGGCTGGGTTCTAACCTGTTGCGGAG [TAGAGGGCTCC_LTGcore_GC_RTGcore_CT] (site TAGAGGGCTCC) (LTG core: GC, RTG core: CT)	0.284
TAGAGGGTCTGGGTTCTAACCTGTTGCGGAG [TAGAGGGCTCC_LTGcore_TC_RTGcore_CT] (site TAGAGGGCTCC) (LTG core: TC, RTG core: CT)	0.506
TAGAGGGTGTGGGTTCTAACCTGTTGCGGCA [TAGAGGGCTCC_LTGcore_TG_RTGcore_TG] (site TAGAGGGCTCC) (LTG core: TG, RTG core: TG)	0.623
TCGCGACAGTGGGTTCTAACCTGTTGCCGAG [TCGCGACCTCG_LTGcore_AG_RTGcore_CT] (site TCGCGACCTCG) (LTG core: AG, RTG core: CT)	0.161
TCGCGACCTTGGGTTCTAACCTGTTGCCGAA [TCGCGACCTCG_LTGcore_CT_RTGcore_TT] (site TCGCGACCTCG) (LTG core: CT, RTG core: TT)	0.666
TCGCGACCTTGGGTTCTAACCTGTTGCCGAG [TCGCGACCTCG_LTGcore_CT_RTGcore_CT] (site TCGCGACCTCG) (LTG core: CT, RTG core: CT)	1.15
TCGCGACGCTGGGTTCTAACCTGTTGCCGGC [TCGCGACCTCG_LTGcore_GC_RTGcore_GC] (site TCGCGACCTCG) (LTG core: GC, RTG core: GC)	0.0326
TCGCGACGGTGGGTTCTAACCTGTTGCCGCC [TCGCGACCTCG_LTGcore_GG_RTGcore_GG] (site TCGCGACCTCG) (LTG core: GG, RTG core: GG)	0.0807
TCGCGACTATGGGTTCTAACCTGTTGCCGTA [TCGCGACCTCG_LTGcore_TA_RTGcore_TA] (site TCGCGACCTCG) (LTG core: TA, RTG core: TA)	0.139
TCTACCCCTTGGGTTCTAACCTGTTGCTGCA [TCTACCCCTCA_LTGcore_CT_RTGcore_TG] (site TCTACCCCTCA) (LTG core: CT, RTG core: TG)	0.217
TCTACCCCTTGGGTTCTAACCTGTTGCTGGC [TCTACCCCTCA_LTGcore_CT_RTGcore_GC] (site TCTACCCCTCA) (LTG core: CT, RTG core: GC)	0.129
TCTACCCGCTGGGTTCTAACCTGTTGCTGAG [TCTACCCCTCA_LTGcore_GC_RTGcore_CT] (site TCTACCCCTCA) (LTG core: GC, RTG core: CT)	0.045
TCTACCCGTTGGGTTCTAACCTGTTGCTGAG [TCTACCCCTCA_LTGcore_GT_RTGcore_CT] (site TCTACCCCTCA) (LTG core: GT, RTG core: CT)	0.149
TCTACCCTATGGGTTCTAACCTGTTGCTGTA [TCTACCCCTCA_LTGcore_TA_RTGcore_TA] (site TCTACCCCTCA) (LTG core: TA, RTG core: TA)	0.0877
TCTACCCTTTGGGTTCTAACCTGTTGCTGAA [TCTACCCCTCA_LTGcore_TT_RTGcore_TT] (site TCTACCCCTCA) (LTG core: TT, RTG core: TT)	0.0207
TCTACCCTTTGGGTTCTAACCTGTTGCTGAG [TCTACCCCTCA_LTGcore_TT_RTGcore_CT] (site TCTACCCCTCA) (LTG core: TT, RTG core: CT)	0.0279
TGATACCAGTGGGTTCTAACCTGTTGCGTAG [TGATACCCTAC_LTGcore_AG_RTGcore_CT] (site TGATACCCTAC) (LTG core: AG, RTG core: CT)	0.0989

Sequence	recombinant barcode read abundance (log10)
TGATACCATTGGGTTCTAACCTGTTGCGTAG [TGATACCCTAC_LTGcore_AT_RTGcore_CT] (site TGATACCCTAC) (LTG core: AT, RTG core: CT)	0.0337
TGATACCCGTGGGTTCTAACCTGTTGCGTAG [TGATACCCTAC_LTGcore_CG_RTGcore_CT] (site TGATACCCTAC) (LTG core: CG, RTG core: CT)	0.907
TGATACCCGTGGGTTCTAACCTGTTGCGTCG [TGATACCCTAC_LTGcore_CG_RTGcore_CG] (site TGATACCCTAC) (LTG core: CG, RTG core: CG)	0.0552
TGATACCCTTGGGTTCTAACCTGTTGCGTTG [TGATACCCTAC_LTGcore_CT_RTGcore_CA] (site TGATACCCTAC) (LTG core: CT, RTG core: CA)	1.25
TGATACCGCTGGGTTCTAACCTGTTGCGTGC [TGATACCCTAC_LTGcore_GC_RTGcore_GC] (site TGATACCCTAC) (LTG core: GC, RTG core: GC)	0.107
TGATACCGGTGGGTTCTAACCTGTTGCGTCC [TGATACCCTAC_LTGcore_GG_RTGcore_GG] (site TGATACCCTAC) (LTG core: GG, RTG core: GG)	0.115
TGATACCTGTGGGTTCTAACCTGTTGCGTAG [TGATACCCTAC_LTGcore_TG_RTGcore_CT] (site TGATACCCTAC) (LTG core: TG, RTG core: CT)	0.064
TGTATTCCCTGGGTTCTAACCTGTTGCCTGG [TGTATTCCTAG_LTGcore_CC_RTGcore_CC] (site TGTATTCCTAG) (LTG core: CC, RTG core: CC)	0.267
TGTATTCCTTGGGTTCTAACCTGTTGCCTAT [TGTATTCCTAG_LTGcore_CT_RTGcore_AT] (site TGTATTCCTAG) (LTG core: CT, RTG core: AT)	0.192
TGTATTCCTTGGGTTCTAACCTGTTGCCTCC [TGTATTCCTAG_LTGcore_CT_RTGcore_GG] (site TGTATTCCTAG) (LTG core: CT, RTG core: GG)	0.364
TGTATTCCTTGGGTTCTAACCTGTTGCCTGT [TGTATTCCTAG_LTGcore_CT_RTGcore_AC] (site TGTATTCCTAG) (LTG core: CT, RTG core: AC)	0.0232
TGTATTCGATGGGTTCTAACCTGTTGCCTTC [TGTATTCCTAG_LTGcore_GA_RTGcore_GA] (site TGTATTCCTAG) (LTG core: GA, RTG core: GA)	0.138
TGTATTCGGTGGGTTCTAACCTGTTGCCTCC [TGTATTCCTAG_LTGcore_GG_RTGcore_GG] (site TGTATTCCTAG) (LTG core: GG, RTG core: GG)	0.0849
TGTATTCGTTGGGTTCTAACCTGTTGCCTAC [TGTATTCCTAG_LTGcore_GT_RTGcore_GT] (site TGTATTCCTAG) (LTG core: GT, RTG core: GT)	0.00818
TGTATTCTATGGGTTCTAACCTGTTGCCTTA [TGTATTCCTAG_LTGcore_TA_RTGcore_TA] (site TGTATTCCTAG) (LTG core: TA, RTG core: TA)	0.0243
TGTATTCTTTGGGTTCTAACCTGTTGCCTAG [TGTATTCCTAG_LTGcore_TT_RTGcore_CT] (site TGTATTCCTAG) (LTG core: TT, RTG core: CT)	0.242
TTATAAACTTGGGTTCTAACCTGTTGCCTAG [TTATAAACTAG_LTGcore_CT_RTGcore_CT] (site TTATAAACTAG) (LTG core: CT, RTG core: CT)	0.894
